Laboratory results published in paper PMC12977544, “Phenotypic high-throughput screening identifies modulators of gut microbial choline metabolism” (mBio, 2026).

How the values were obtained:
[1] = test system: Anaerococcus hydrogenalis DSM 7454; assay: TMA inhibition in bacterial whole cells (LC–MS/MS of d9-TMA from d9-choline); format: cell-based; settings: 1 mM d9-choline in PBS, 75 min, 37°C, anaerobic; for EC50: Anaerococcus hydrogenalis, DSM7454, 1.25 h
Protocol: (§1) For TMA inhibition assays, E. coli and P. mirabilis were grown in NCE medium supplemented with 20 mM choline chloride, A. hydrogenalis was grown in MEGA medium supplemented with 3 mM choline chloride, and C. sporogenes was grown in BHI medium supplemented with 20 mM of choline chloride to induce expression of the cut gene cluster. For MIC assays, all bacteria strains were grown in MEGA medium.
(§2) Compounds were stored as 10 mM DMSO stocks at –20°C and diluted in DMSO to prepare varying concentrations of inhibitors for testing. Bacteria were grown anaerobically overnight in media supplemented with choline as described above. Cells were pelleted and resuspended in PBS, and d9-choline chloride was added to a final concentration of 1 mM. The final OD600 of the PBS cell resuspensions is as follows: 0.4 (E. coli), 0.15–0.2 (P. mirabilis), 0.2 (C. sporogenes), and 0.4 (A. hydrogenalis). The resuspended cells were added to 96-well plates containing inhibitors (final concentration of 1% DMSO, with final inhibitor concentrations ranging between 0 and 325 µM). The plates were sealed and incubated for 75 min (or 90 min for P. mirabilis) at 37°C. Following incubation, the plates were removed from the anaerobic chamber and analyzed immediately or kept at –20°C until LC–MS/MS analysis. Each inhibitor concentration was tested in triplicate. EC50 values were calculated with GraphPad Prism by fitting the log(inhibitor) vs response—Variable slope (four-parameter) model for non-linear regression.
(§3) Samples were kept frozen until analysis and kept cold on ice during handling due to the volatility of TMA. Bacterial cell resuspensions in PBS were diluted 100-fold in LCMS-grade acetonitrile with 0.1% formic acid to lyse cells, precipitate proteins, and extract metabolites. Samples were centrifuged at 4,000 rpm for 10 min at 4°C to pellet proteins. The supernatants were then further diluted 20-fold in LCMS-grade acetonitrile with 0.1% formic acid, and the resulting solution was analyzed by LC–MS/MS.
(§4) LC–MS/MS analysis was performed on an Agilent 1290/6470 Triple Quadrupole LC–MS instrument (Agilent Technologies) using electrospray ionization. The mass spectrometer was operated in multiple reaction monitoring (MRM) mode with positive ionization monitoring. The precursor–product ion pairs used in MRM mode were as follows: m/z 69.1m/z → 49.1 (d9-TMA) and m/z 113.2 m/z → 69.1 (d9-choline). The capillary voltage was set to 4.0 kV, and the fragmentor voltage was set to 30 V (d9-TMA) and 115 V (d9-choline). The collision energy for the precursor–product ion pairs was set to 29 V (d9-TMA) and 21 V (d9-choline). MS^1 resolution was set to wide and MS^2 resolution to unit. The drying gas temperature was maintained at 250°C, with a flow rate of 11 L/min and a nebulizer pressure of 45 psi. The time filter width used was 0.07 min. The injection volume of all samples was 1 μL. Samples were injected onto InfinityLab Poroshell 120 (Agilent) HILIC columns (2.7 μm, 100 mm × 2.1 mm, 100 Å) preceded by InfinityLab Poroshell 120 HILIC guard columns (2.1 mm, 1.9µm UHPLC guard). The LC conditions on the binary pump were as follows: a gradient of 5–35% A increasing over 1.95 min (1.2 mL/min), a gradient of 35–5% A decreasing over 0.05 min (1.6 mL/min), and held at 5% A for 0.5 min (2 mL/min). […] Solvent A was 10 mM ammonium formate with 0.1% formic acid, and solvent B was acetonitrile with 0.1% formic acid. Data analysis was performed with Mass Hunter Workstation Data Acquisition and Qualitative Analysis software (Agilent Technologies).

[2] = test system: Clostridium sporogenes ATCC 15579; assay: as above; format: cell-based; settings: Clostridium sporogenes, ATCC15579, 1.25 h; 1 mM d9-choline in PBS, 75 min, 37°C, anaerobic
Protocol: as §1, §2, §3, §4

[3] = test system: Proteus mirabilis ATCC 29906; assay: as above; format: cell-based; settings: Proteus mirabilis, ATCC29906, 1.5 h; 1 mM d9-choline in PBS, 90 min, 37°C, anaerobic; read-out: EC50 in whole cells, P. mirabilis (TMA inhibition)
Protocol: as §1, §2, §3, §4

[4] = target: T1, purified CutC (choline trimethylamine-lyase) (Oleidesulfovibrio alaskensis, UniProt Q30W70); assay: In vitro CutC activity assay coupled to YADH/NADH (absorbance 340 nm); format: biochemical, Desulfovibrio desulfuricans G20; settings: 5 nM CutC, 200 µM choline, 20°C, anaerobic
T1 construct: made in house
Protocol: To investigate if our compounds were inhibiting CutC directly, we tested their activity toward the purified enzyme. The activity of CutC was determined using a coupled enzyme assay, where the acetaldehyde product from the cleavage of choline to TMA is reduced to ethanol by yeast alcohol dehydrogenase (YADH) using nicotinamide adenine dinucleotide (NADH) as a cofactor. The consumption of NADH results in a change in absorption at 340 nm, and this rate of change of absorption was used to calculate the initial rates of reaction of CutC in the presence of varying concentrations of inhibitors ([14], [65]).
CutC and CutD enzymes from Desulfovibrio desulfuricans G20 were purified, CutC was activated by incubation with CutD, and the amount of glycyl radical installation was quantified as previously described ([15]). The IC50 of compounds was determined in an in vitro CutC activity assay, where CutC activity is coupled to the NADH-dependent enzymatic reduction of acetaldehyde by YADH ([15]). Briefly, assays were conducted in an anaerobic chamber (MBraun) under N2 atmosphere at 20°C. In 50 mM potassium phosphate buffer (pH 8.0, 50 mM KCl), 40 µM of CutD and 150 µM of sodium dithionite were incubated for 20 min before the addition of 200 µM of SAM and 20 µM of CutC monomer. The mixture was incubated for 1 h to activate the glycyl radical enzyme, after which the activated CutC mixture was diluted […] in 50 mM potassium phosphate buffer (pH 8.0, 50 mM KCl). A master mix containing 200 µM NADH, 0.4 µM YADH (Sigma), and the diluted CutC mixture (5 nM final concentration in assay) was prepared and aliquoted into 96-well plates (180 µL per well). Ten microliters of inhibitor or DMSO vehicle was added, followed by 10 µL of aqueous choline chloride solution (final concentration 200 µM). Absorbance was measured at 340 nm immediately after addition of all assay components, with measurements taken every 20 s for 10 min. Initial rates were calculated from absorbance measurements and fitted to Michaelis–Menten equation using nonlinear regression in GraphPad Prism 10 (v. 10.4.0). Background activity was subtracted using no substrate controls, and initial rates for each inhibitor concentration were normalized to no inhibitor controls. IC50 values were obtained by plotting normalized activity values against the logarithm of inhibitor concentration and fitting to a nonlinear regression model in GraphPad Prism 10 (v. 10.4.0).

[5] = test system: E. coli MS 200-1; assay: MIC in MEGA medium; format: cell-based, Escherichia coli MS 200-1; settings: Escherichia coli, MS2001; anaerobic, 37°C, 24 h, up to 200 µM
Protocol: as §1

T1 sequence (Q30W70 53-846): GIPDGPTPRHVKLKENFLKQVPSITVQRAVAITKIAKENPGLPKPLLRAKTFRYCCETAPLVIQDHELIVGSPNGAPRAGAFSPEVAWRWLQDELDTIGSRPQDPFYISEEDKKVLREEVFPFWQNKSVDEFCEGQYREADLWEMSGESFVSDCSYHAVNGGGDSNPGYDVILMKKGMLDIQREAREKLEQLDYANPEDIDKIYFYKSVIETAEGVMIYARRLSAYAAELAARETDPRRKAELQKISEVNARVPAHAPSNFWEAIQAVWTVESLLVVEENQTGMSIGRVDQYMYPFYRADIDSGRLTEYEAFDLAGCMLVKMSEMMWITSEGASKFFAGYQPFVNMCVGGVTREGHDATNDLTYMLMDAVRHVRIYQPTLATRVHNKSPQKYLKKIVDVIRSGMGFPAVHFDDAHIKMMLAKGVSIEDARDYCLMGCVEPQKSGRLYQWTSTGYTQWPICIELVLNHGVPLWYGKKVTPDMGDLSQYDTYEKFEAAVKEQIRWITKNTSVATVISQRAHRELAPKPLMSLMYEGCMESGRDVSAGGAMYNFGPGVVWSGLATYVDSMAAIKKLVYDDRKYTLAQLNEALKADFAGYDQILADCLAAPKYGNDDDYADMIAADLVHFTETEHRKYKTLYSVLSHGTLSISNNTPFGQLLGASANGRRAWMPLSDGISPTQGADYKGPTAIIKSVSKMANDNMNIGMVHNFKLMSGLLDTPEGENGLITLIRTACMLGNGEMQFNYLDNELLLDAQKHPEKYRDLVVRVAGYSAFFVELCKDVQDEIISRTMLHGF

## Cc1ccc(-c2cc(C(=O)NCCCN3CCc4ccccc4C3)c(C)[nH]2)cc1C [Compound 5]
[1]
  EC50 in whole cells, A. hydrogenalis (TMA inhibition): No inhibition
[2]
  EC50: 28 µM
[3]
  EC50: 33 µM

## Cc1ccc(-c2cc(C(=O)NCCCN3CCC(C)CC3)c(C)[nH]2)cc1C [Compound 6]
[1]
  EC50: 31 µM
[2]
  EC50: 132 µM
[3]
  EC50: 48 µM
[4]
  IC50: 48 µM
[5]
  MIC: > 200 µM

## Cc1ccc(-c2cc(C(=O)NCCCCCN3CCCCCC3)c(C)[nH]2)cc1C [Compound 45]
[1]
  EC50: 18 µM
[2]
  EC50: 14 µM
[3]
  EC50: 7 µM
[4]
  IC50: 17 µM
[5]
  MIC: > 200 µM
